In ChEMBL document CHEMBL5209571, “Membrane potential based assay for SLC13A3 using HEK-293 SLC13A3 OE cells” (2022):

Molecular target: T1, Na(+)/dicarboxylate cotransporter 3 (Homo sapiens, UniProt Q8WWT9)
T1 sequence (Q8WWT9 whole entry): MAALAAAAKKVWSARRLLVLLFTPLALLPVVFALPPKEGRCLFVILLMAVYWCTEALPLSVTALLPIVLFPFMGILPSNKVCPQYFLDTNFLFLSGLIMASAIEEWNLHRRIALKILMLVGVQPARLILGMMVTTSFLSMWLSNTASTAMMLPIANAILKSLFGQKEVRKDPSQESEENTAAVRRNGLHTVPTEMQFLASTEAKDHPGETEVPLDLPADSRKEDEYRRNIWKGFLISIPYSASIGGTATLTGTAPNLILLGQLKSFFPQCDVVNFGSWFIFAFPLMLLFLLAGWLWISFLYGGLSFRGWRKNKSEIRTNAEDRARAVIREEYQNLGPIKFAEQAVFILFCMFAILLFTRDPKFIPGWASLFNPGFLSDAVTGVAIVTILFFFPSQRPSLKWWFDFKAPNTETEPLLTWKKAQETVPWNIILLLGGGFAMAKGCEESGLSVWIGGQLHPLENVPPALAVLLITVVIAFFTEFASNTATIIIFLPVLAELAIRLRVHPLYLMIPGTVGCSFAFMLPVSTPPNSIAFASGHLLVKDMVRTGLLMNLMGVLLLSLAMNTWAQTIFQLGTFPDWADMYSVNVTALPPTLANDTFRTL
Test: Substrate uptake by the Na(+)/Dicarboxylate Cotransporter 3 (NADC3, SLC13A3) as assessed by the fluorescent FLIPR membrane potential dye in HEK-293 JumpIN-SLC13A3 cells (PubChem AID: 1794820)
Type: functional, cell-based, HEK293

| EC50 | Structure (SMILES) |
| --- | --- |
| 54 µM | O=C(O)CCC(=O)C(=O)O [ALPHA-KETOGLUTARIC ACID] |
| 107 µM | O=C(O)CCC(=O)O [SUCCINIC ACID] |
